# Source: ChEMBL document CHEMBL6121054, “Discovery of Metabolic Reprogramming 2-Quinolones as Effective Antimicrobials for MRSA-Infected Wound Therapy” (J Med Chem, 2025)
# The source made the active and inactive calls. The rule behind the calls is not given here.
# What was measured:
# [1] = tested on: Staphylococcus aureus; test: Disruption of cell membrane integrity in Staphylococcus aureus USA300 assessed as visible cavity formation on surface at 4 to 8 times MIC by TEM/SEM analysis; format: functional, organism-based
# [2] = tested on: Staphylococcus aureus; test: Induction of ROS accumulation in Staphylococcus aureus USA300 upto 0.25 ug/ml incubated for 1 hr by DCFH-DA dye based analysis; format: functional, organism-based; conditions: dose <= 0.25 µg/ml
# [3] = tested on: Klebsiella pneumoniae; test: Bactericidal activity against Klebsiella pneumoniae ATCC 43816; format: functional
# [4] = tested on: Listeria monocytogenes; test: Bactericidal activity against Listeria monocytogenes EGD measured upto 24 hrs by time-kill assay; format: functional, organism-based
# [5] = tested on: Staphylococcus aureus; test: Upregulation of ATP level in Staphylococcus aureus USA300 upto 0.25 ug/ml incubated for 5 hrs; format: functional, organism-based; conditions: dose <= 0.25 µg/ml
# [6] = tested on: Staphylococcus aureus; test: Antibacterial activity against methicillin-resistant Staphylococcus aureus infected in BALB/c mouse wound model assessed as reduction in bacterial load at 20 to 80 mg/kg administered topically on days 0, 3 and 6 measured after 12 days; format: functional, organism-based; conditions: dose 20-80 mg/kg, route top, time 12.0 day
# [7] = tested on: Klebsiella pneumoniae; test: Antibacterial activity against Klebsiella pneumoniae 13b5 incubated for 16 to 24 hrs by broth microdilution method; format: functional; conditions: time 16-24 hrs
# [8] = tested on: Staphylococcus aureus; test: Bactericidal activity against Staphylococcus aureus DU1090; format: functional
# [9] = tested on: A549; test: Reversal of Staphylococcus aureus USA300-induced cytotoxicity in human A549 cells infected with bacteria assessed as reduction in number of dead cells at 4 to 8 ug/ml preincubated with compound followed by […] infection for 5 hrs by Calcein AM/Ethidium homodimer-1 dye based analysis; format: functional, cell-based; conditions: dose 4-8 µg/ml
# [10] = tested on: Staphylococcus aureus; test: Antibacterial activity against Staphylococcus aureus ATCC 25923 incubated for 16 to 24 hrs by broth microdilution method; format: functional; conditions: time 16-24 hrs
# [11] = tested on: Staphylococcus aureus; test: Antibacterial activity against methicillin-resistant Staphylococcus aureus infected in BALB/c mouse wound model assessed as reversal of inflammation-induced TNF-alpha level in wound at 20 to 80 mg/kg administered topically on days 0, 3 and 6 measured after 12 days by ELISA; format: functional, organism-based; conditions: dose 20-80 mg/kg, route top, time 12.0 day
# [12] = tested on: Staphylococcus aureus; test: Antibacterial activity against methicillin-resistant Staphylococcus aureus infected in BALB/c mouse wound model assessed as reduction in bacterial load at 20 to 80 mg/kg administered topically on days 0, 3 and 6 measured after 6 days; format: functional, organism-based; conditions: dose 20-80 mg/kg, route top, time 6.0 day
# [13] = tested on: Staphylococcus aureus; test: Bactericidal activity against methicillin-resistant Staphylococcus aureus USA300 at 4 times MIC measured for 12 to 24 hrs by time-kill assay; format: functional, organism-based; conditions: time 12-24 hrs
# [14] = tested on: Staphylococcus aureus; test: Antibacterial activity against methicillin-resistant Staphylococcus aureus infected in BALB/c mouse wound model assessed as increase in thickness of granulation tissue at 20 to 80 mg/kg administered topically on days 0, 3 and 6 measured for 6 to 12 days by H and E staining based analysis; format: functional, organism-based; conditions: dose 20-80 mg/kg, route top, time 6-12 day
# [15] = tested on: Klebsiella pneumoniae; test: Bactericidal activity against Klebsiella pneumoniae 13b5; format: functional
# [16] = tested on: Staphylococcus aureus; test: Antibacterial activity against Staphylococcus aureus USA300 assessed as acceleration of TCA cycle measured by increase in icd mRNA level upto 0.25 ug/ml incubated for 6 hrs by RT-PCR analysis; format: functional, organism-based; conditions: dose <= 0.25 µg/ml
# [17] = tested on: Klebsiella pneumoniae; test: Antibacterial activity against Klebsiella pneumoniae ATCC 43816 incubated for 16 to 24 hrs by broth microdilution method; format: functional; conditions: time 16-24 hrs
# [18] = tested on: Staphylococcus aureus; test: Bactericidal activity against Staphylococcus aureus USA300; format: functional
# [19] = tested on: Staphylococcus aureus; test: Antibacterial activity against methicillin-resistant Staphylococcus aureus MRSA 1 incubated for 16 to 24 hrs by broth microdilution method; format: functional; conditions: Staphylococcus aureus, MRSA 1, time 16-24 hrs; read-out: MIC
# [20] = Hemolytic activity in rabbit RBCs upto 8 ug/ml incubated for 1 hr; format: toxicity, cell-based, Oryctolagus cuniculus; conditions: erythrocyte, dose < 8 µg/ml
# [21] = tested on: Staphylococcus aureus; test: Effect on histidine metabolism in Staphylococcus aureus USA300 at 4 times MIC by KEGG analysis; format: functional, organism-based
# [22] = tested on: Acinetobacter baumannii; test: Antibacterial activity against Acinetobacter baumannii ATCC 17978 incubated for 16 to 24 hrs by broth microdilution method; format: functional; conditions: time 16-24 hrs
# [23] = tested on: Staphylococcus aureus; test: Antibacterial activity against Staphylococcus aureus ATCC 29213 incubated for 16 to 24 hrs by broth microdilution method; format: functional; conditions: time 16-24 hrs
# [24] = tested on: Staphylococcus aureus; test: Disruption of cell membrane integrity in Staphylococcus aureus USA300 assessed as protein leakage at 0.25 ug/ml incubated for 6 hrs MIC by SDS-PAGE analysis; format: functional, organism-based; conditions: dose 0.25 µg/ml
# [25] = tested on: Staphylococcus aureus; test: Effect on pyrimidine metabolism in Staphylococcus aureus USA300 at 4 times MIC by KEGG analysis; format: functional, organism-based
# [26] = tested on: Staphylococcus aureus; test: Bactericidal activity against Staphylococcus aureus ATCC 25904; format: functional
# [27] = tested on: Listeria monocytogenes; test: Bactericidal activity against Listeria monocytogenes ATCC 19115; format: functional
# [28] = tested on: Staphylococcus aureus; test: Antibacterial activity against methicillin-resistant Staphylococcus aureus infected in BALB/c mouse wound model assessed as decrease in wound area at 20 to 80 mg/kg administered topically on days 0, 3 and 6 measured after 12 days; format: functional, organism-based; conditions: dose 20-80 mg/kg, route top, time 12.0 day
# [29] = tested on: Staphylococcus aureus; test: Inhibition of resistance development in Staphylococcus aureus USA300 incubated for 24 hrs measured after 14 passages by broth microdilution method; format: functional, organism-based
# [30] = tested on: Staphylococcus aureus; test: Antibacterial activity against methicillin-resistant Staphylococcus aureus MRSA 2 incubated for 16 to 24 hrs by broth microdilution method; format: functional; conditions: time 16-24 hrs
# [31] = tested on: Listeria monocytogenes; test: Bactericidal activity against Listeria monocytogenes EGD; format: functional
# [32] = tested on: Escherichia coli; test: Antibacterial activity against Escherichia coli […] incubated for 16 to 24 hrs by broth microdilution method; format: functional; conditions: time 16-24 hrs
# [33] = tested on: Staphylococcus aureus; test: Bactericidal activity against Staphylococcus aureus NCTC 8325-4; format: functional
# [34] = tested on: Staphylococcus aureus; test: Antibacterial activity against methicillin-resistant Staphylococcus aureus infected in BALB/c mouse wound model assessed as decrease in CD68 expression in skin tissue at 20 to 80 mg/kg administered topically on days 0, 3 and 6 measured after 12 days by IHC analysis; format: functional, organism-based; conditions: dose 20-80 mg/kg, route top, time 12.0 day
# [35] = tested on: Staphylococcus aureus; test: Antibacterial activity against Staphylococcus aureus USA300 assessed as acceleration of TCA cycle measured by increase in mqo mRNA level upto 0.25 ug/ml incubated for 6 hrs by RT-PCR analysis; format: functional, organism-based; conditions: dose <= 0.25 µg/ml
# [36] = tested on: Escherichia coli; test: Bactericidal activity against Escherichia coli ATCC 25922; format: functional
# [37] = tested on: Streptococcus suis; test: Bactericidal activity against Streptococcus suis ZY05719; format: functional
# [38] = tested on: Staphylococcus aureus; test: Disruption of cell membrane integrity in Staphylococcus aureus USA300 assessed as irregular cell structures at 4 to 8 times MIC by TEM/SEM analysis; format: functional, organism-based
# [39] = tested on: Listeria monocytogenes; test: Antibacterial activity against Listeria monocytogenes ATCC 19115 incubated for 16 to 24 hrs by broth microdilution method; format: functional; conditions: time 16-24 hrs
# [40] = tested on: Acinetobacter baumannii; test: Antibacterial activity against Acinetobacter baumannii ATCC 19606 incubated for 16 to 24 hrs by broth microdilution method; format: functional; conditions: time 16-24 hrs
# [41] = tested on: Staphylococcus aureus; test: Antibacterial activity against methicillin-resistant Staphylococcus aureus infected in BALB/c mouse wound model assessed as reversal of inflammation-induced IL-6 level in wound at 20 to 80 mg/kg administered topically on days 0, 3 and 6 measured after 12 days by ELISA; format: functional, organism-based; conditions: dose 20-80 mg/kg, route top, time 12.0 day
# [42] = tested on: Staphylococcus aureus; test: Inhibition of biofilm formation in Staphylococcus aureus USA300 assessed as decrease in green fluorescence at 0.06 to 0.13 ug/ml incubated for 24 hrs by SYTO 9 dye based CLSM analysis; format: functional, organism-based; conditions: dose 0.06-0.13 µg/ml
smiles,measurement,setting,value
CCn1c(=O)c(C(=O)Nc2nnc(-c3ccc(C)cn3)s2)c(O)c2ccccc21,Activity,[1],Active
same,Activity,[2],Active
same,MBC,[3],> 512 µg/mL
same,Activity,[4],Active; Bacteria Were Suppressed Or Completely Eliminated
same,Activity,[5],Active
same,Activity,[6],Active
same,MIC,[7],> 512 µg/mL
same,MBC,[8],0.23 µg/mL
same,Activity,[9],Active
same,MIC,[10],0.03 µg/mL
same,Activity,[11],Active
same,Activity,[12],inactive
same,Activity,[13],Active
same,Activity,[14],Active
same,MBC,[15],> 512 µg/mL
same,Activity,[16],Active
same,MIC,[17],> 512 µg/mL
same,MBC,[18],0.16 µg/mL
same,MIC,[19],0.02 µg/mL
same,Activity,[20],Non-toxic
same,Activity,[21],Active
same,MIC,[22],> 512 µg/mL
same,MIC,[23],0.03 µg/mL
same,Activity,[24],Active
same,Activity,[25],Active
same,MBC,[26],0.17 µg/mL
same,MBC,[27],> 0.25 µg/mL
same,Activity,[28],Active
same,inhibition,[29],Active
same,MIC,[30],0.02 µg/mL
same,MBC,[31],> 0.25 µg/mL
same,MIC,[32],> 512 µg/mL
same,MBC,[33],0.09 µg/mL
same,Activity,[34],Active
same,Activity,[35],Active
same,MBC,[36],> 512 µg/mL
same,MBC,[37],0.1 µg/mL
same,Activity,[38],Active
same,MIC,[39],0.02 µg/mL
same,MIC,[40],> 512 µg/mL
same,Activity,[41],Active
same,inhibition,[42],Active
